Where “and” joins values, the source holds several entries; their conditions need not be identical. Identical values can stand only once.
Experiments:
[1] = excess molar enthalpy (molar enthalpy of mixing); xn = mol fraction of the nth substance listed; conditions: 100 kPa, Liquid, Calvet calorimetry
[2] = xn = mol fraction of the nth substance listed; conditions: 100 kPa, Liquid, Vibrating tube method

CC1=CCC(=O)O1 [5-methylfuran-2(3H)-one] + O
Conditions | excess molar enthalpy, [1] | mass density, [2]
288.15 K, x1 = 0.001003 | -0.000397 kcal/mol and -0.000394 kcal/mol | 999.878 kg/m3 and 999.871 kg/m3
288.15 K, x1 = 0.002004 | -0.000729 kcal/mol | 1000.64 kg/m3
288.15 K, x1 = 0.002005 | -0.000727 kcal/mol | 1000.64 kg/m3
288.15 K, x1 = 0.003003 | -0.00101 kcal/mol | 1001.39 kg/m3
288.15 K, x1 = 0.003004 | -0.00101 kcal/mol | 1001.39 kg/m3
288.15 K, x1 = 0.004 | -0.00125 kcal/mol | 1002.15 kg/m3
288.15 K, x1 = 0.004001 | -0.00123 kcal/mol | 1002.14 kg/m3
288.15 K, x1 = 0.004995 | -0.00143 kcal/mol | 1002.91 kg/m3
288.15 K, x1 = 0.004996 | -0.00141 kcal/mol | 1002.92 kg/m3
288.15 K, x1 = 0.00599 | -0.00152 kcal/mol and -0.00155 kcal/mol | 1003.65 kg/m3 and 1003.64 kg/m3
298.15 K, x1 = 0.001003 | -2.65e-05 kcal/mol | 997.759 kg/m3
298.15 K, x1 = 0.001004 | -2.65e-05 kcal/mol | 997.756 kg/m3
298.15 K, x1 = 0.002004 | -6.21e-06 kcal/mol | 998.467 kg/m3
298.15 K, x1 = 0.002006 | -6.21e-06 kcal/mol | 998.464 kg/m3
298.15 K, x1 = 0.003003 | 6.57e-05 kcal/mol | 999.156 kg/m3
298.15 K, x1 = 0.003005 | 6.05e-05 kcal/mol | 999.156 kg/m3
298.15 K, x1 = 0.004 | 0.000175 kcal/mol | 999.847 kg/m3
298.15 K, x1 = 0.004003 | 0.000175 kcal/mol | 999.843 kg/m3
298.15 K, x1 = 0.004993 | 0.000335 kcal/mol | 1000.51 kg/m3
298.15 K, x1 = 0.004998 | 0.000332 kcal/mol | 1000.53 kg/m3
298.15 K, x1 = 0.005987 | 0.000559 kcal/mol | 1001.2 kg/m3
298.15 K, x1 = 0.005992 | 0.000571 kcal/mol | 1001.21 kg/m3
308.15 K, x1 = 0.001003 | 0.000327 kcal/mol and 0.000325 kcal/mol | 994.684 kg/m3
308.15 K, x1 = 0.002003 | 0.000693 kcal/mol | 995.33 kg/m3
308.15 K, x1 = 0.002004 | 0.000693 kcal/mol | 995.328 kg/m3
308.15 K, x1 = 0.003002 | 0.0011 kcal/mol | 995.967 kg/m3
308.15 K, x1 = 0.003003 | 0.0011 kcal/mol | 995.967 kg/m3
308.15 K, x1 = 0.003999 | 0.00155 kcal/mol | 996.597 kg/m3
308.15 K, x1 = 0.004 | 0.00153 kcal/mol | 996.594 kg/m3
308.15 K, x1 = 0.004994 | 0.00204 kcal/mol | 997.199 kg/m3
308.15 K, x1 = 0.004995 | 0.00202 kcal/mol | 997.205 kg/m3
308.15 K, x1 = 0.005987 | 0.00257 kcal/mol | 997.78 kg/m3
308.15 K, x1 = 0.00599 | 0.00258 kcal/mol | 997.837 kg/m3
318.15 K, x1 = 0.001003 | 0.000667 kcal/mol | 990.808 kg/m3 and 990.803 kg/m3
318.15 K, x1 = 0.002003 | 0.00136 kcal/mol and 0.00137 kcal/mol | 991.392 kg/m3 and 991.396 kg/m3
318.15 K, x1 = 0.003002 | 0.00211 kcal/mol and 0.0021 kcal/mol | 991.977 kg/m3 and 991.98 kg/m3
318.15 K, x1 = 0.003998 | 0.00286 kcal/mol | 992.55 kg/m3
318.15 K, x1 = 0.003999 | 0.00286 kcal/mol | 992.546 kg/m3
318.15 K, x1 = 0.004993 | 0.00369 kcal/mol and 0.00367 kcal/mol | 993.112 kg/m3 and 993.102 kg/m3
318.15 K, x1 = 0.005986 | 0.00455 kcal/mol | 993.663 kg/m3
318.15 K, x1 = 0.005987 | 0.00456 kcal/mol | 993.668 kg/m3
